Test results from patent publication US20090062309A1, “Therapeutic compositions for the treatment of cardiovascular diseases and methods for use therefor” (priority 2007, published 2009).
Values joined by “and” are separate entries in the source; they are usually repeats but may differ in a detail not shown here. Equal values may be shown once. “Also recorded” adds a separate entry of the source.

Tested on: subjects with CHD having decreased RBC K+ content
Assay: Single-Blind Trial of Amiloride in Coronary Heart Disease During 2-Year Follow-Up
Format: in vivo, human
Procedure: Subjects were evaluated by clinical (CCS angina Class, dyspnea, and arrhythmia). Other non CHD causes of chest pain, dyspnea, and arrhythmia had been ruled out. Safety control were serial ECG, non-invasive hemodynamics (DynaPulse 200A, CA, USA), Ion Transport Study (plasma and RBC electrolytes, 12-hour urine volume and electrolyte excretion, and plasma and urine creatinine and osmolality), BIA for Body Composition Analysis and estimation of Total Body K^+ (Quantum X, RJL Systems), and Clinical Biochemistry (FPG, Lipids, Uric acid), were measured at 1, 3, 6, 12, 18, 24 months follow-up period.
After written consent, each patient entered this single-blind trial directed to reverse or improve angina and other symptoms of CHD, as well as the ECG alterations of ischemia, and if possible in long-term assay, on improved LV motion/contractility in the echocardiography studies.
All cases had: a) Serial ECG for LVH by Cornell or Sokolow-Lyon Criteria (QRS duration times Cornell voltage: [R aVL+ SV3, with 6 mm added in women, >2440 mm×ms], Sokolow-Lyon voltage: [SV1+RV5/V6]> 38 mm; along with LV strain pattern [classical ST-segment depressed, with inverted T-waves], or LVH voltage criteria with mild LV strain pattern (isoelectric, biphasic or non-symmetrical negative T-waves, without ST-segment depression), and ECG criteria for infarction and/or ischemia (Q-waves from previous AMI, decreased R-wave height, non-progressive R-wave voltages in precordial leads, ST-segment elevation […] often referred as injury current, ST-segment depression […] often downsloping from the J point, rectification of the ST segment, and isoelectric, biphasic, negative or inverted T-waves, intraventricular conduction disturbance, and arrhythmias); b) Non-invasive hemodynamic study (DP200M) for cardiac parameters (LV Ejection Time [LVET], LV dP/dT (LV delta pressure-time), Cardiac output and index (CO, Cl), Stroke Volume (SV), Pulse Wave Analysis (PWA) of Central Aortic Blood Pressure [BP], Aortic Systolic (SBP), Diastolic (DBP) and mean (m) BP, Aortic augmentation index; inflection point and reflected wave analysis, Systemic Vascular Resistance and Compliance (SVR/SVC), and Brachial Artery Distensibility (BAD), Brachial Artery Compliance (BAC); c) Ion Transport Studies for RBC (K^+, Na^+) plasma (K^+, Na^+, Cl^−, ICa^2+, Mg^2+), and 12-hours night urinary volume (K^+, Na^+, Cl^−, pH), d) Bio-Impedance Analysis (BIA, Quantum X, RJL Systems, MI, USA) for Total body Potassium, Total body water/Extracellular Water, Fat Mass (FM) and Fat-Free Mass (FFM) and e) Echocardiography was obtained at entry, 6 and 12, 24 months periods.
The statistical analysis was performed using the Student's t-test and analysis of variance. To reduce the probability of significant differences arising by chance, Bonferroni's correction was applied following analysis of variance. All measurement are presented as the mean±S.D., and differences were considered significant when p<0.05.

SMILES: Cl.NC(N)=NC(=O)c1nc(Cl)c(N)nc1N.O.O [Amiloride, 3,5-diamino-6-chloro-N-(diaminomethylene) pyrazinecarboxamide monohydrochloride, dihydrate]
- Days for Improvement, Percentage (%) (2-year trial, n=52): 86.5%
- EGG Alterations: Improved Changes, Number (2-year trial, n=52): 23
- EGG Alterations: Improved Changes, Percentage (%) (2-year trial, n=52): 44.2%
- EGG Alterations: Reverted to Normal, Number (2-year trial, n=52): 18
- EGG Alterations: Reverted to Normal, Percentage (%) (2-year trial, n=52): 34.5%
- EGG Alterations: Unchanged/Worst, Number (2-year trial, n=52): 10
- EGG Alterations: Unchanged/Worst, Percentage (%) (2-year trial, n=52): 19.2%
- EGG Alterations: Weeks for Improvement (2-year trial, n=52): 3.4 ± 1.5 Weeks
- EGG Alterations: Weeks for Improvement, Percentage (%) (2-year trial, n=52): 61%
- Echocardiographic Changes: Altered Hypokinesia, Number (2-year trial, n=52): 34
- Echocardiographic Changes: Altered Hypokinesia, Percentage (%) (2-year trial, n=52): 65.5%
- Echocardiographic Changes: Normal Contractility, Number (2-year trial, n=52): 18
- Echocardiographic Changes: Normal Contractility, Percentage (%) (2-year trial, n=52): 34.5%
- Echocardiographic Changes: Reversed Hypokinesia, Number (2-year trial, n=52): 27
- Echocardiographic Changes: Reversed Hypokinesia, Percentage (%) (2-year trial, n=52): 52%
- Echocardiographic Changes: Unchanged Hypokinesia, Number (2-year trial, n=52): 7
- Echocardiographic Changes: Unchanged Hypokinesia, Percentage (%) (2-year trial, n=52): 13.5%
- Free of Angina (1-2 years), Number (2-year trial, n=52): 37
- Free of Angina (1-2 years), Percentage (%) (2-year trial, n=52): 71.2%
- New CVD Events: ACS, Number (2-year trial, n=52): 7
- New CVD Events: ACS, Percentage (%) (2-year trial, n=52): 13.5%
- New CVD Events: AMI/Stroke/Death, Number (2-year trial, n=52): 0
- New CVD Events: AMI/Stroke/Death, Percentage (%) (2-year trial, n=52): 0%
- New CVD Events: None, Number (2-year trial, n=52): 41
- New CVD Events: None, Percentage (%) (2-year trial, n=52): 79%
- New CVD Events: Ventricular Arrhythmias, Number (2-year trial, n=52): 5
- New CVD Events: Ventricular Arrhythmias, Percentage (%) (2-year trial, n=52): 9.6%
- Reversion of Angina, Number (2-year trial, n=52): 43
- Reversion of Angina, Percentage (%) (2-year trial, n=52): 82.7%
- Subjects with Angina: Days for Improvement (2-year trial, n=52, Amiloride 5 to 10 mg/day): 6.2 ± 3.5 days
- ECG change, single subject FIG. 14A (Diabetic, inferior AMI, during admission in the Amiloride trial): improvement in the subject's antero-lateral ischemia
- ECG after withdrawal, single subject FIG. 14B (Diabetic, two months after withdrawal of Amiloride treatment): ECG alterations marked with arrows indicative of acute coronary syndrome and ventricular arrhythmias
- ECG change, single subject FIG. 12B (Person, 1-year post infarction, 5 months Amiloride, calcium and statins): significant ECG improvement of ST-segment, and T-waves (V1-V6)
- ECG, single subject FIG. 12C (Person, 18 months post AMI, Amiloride, calcium and statins, no other medication): essentially a normal ECG trace
- Duke Treadmill Scores, single subject FIG. 12C (Person, 18 months post AMI, Amiloride, calcium and statins, monohydrochloride, dihydrate): 6.23 and 5.49
- ECG change, single subject FIG. 13B (Person, diabetes, angina, 5-months of Amiloride and statins): improvement of ischemic changes
- DT Score, single subject FIG. 13B (Person, 5-months of Amiloride and statins, score −3 before): 2.3
- ECG after withdrawal, single subject FIG. 13C (Person, after 6-months without Amiloride, optimal angina and diabetes medications): recurrence of ECG alterations
- ECG after re-start, single subject FIG. 13C (Person, three months after Amiloride was reinitiated): normal without ischemic changes
- ECG change, single subject FIG. 11C (person, infarction, angina, heart failure, 2-months Amiloride (5 mg) and calcium plus other medications): rapid reversion of ST-T alterations (V2-V6)
- angina and heart failure symptoms, single subject FIG. 11C (person, 2-months Amiloride (5 mg) and calcium, monohydrochloride, dihydrate): free of angina or symptoms of heart failure; also recorded: free of angina and symptoms of heart failure
- Duke Treadmill Score, single subject FIG. 11C (person, 2-months Amiloride (5 mg) and calcium, score −3 before entering trial): +4.3
